Measured values published in PubChem BioAssay AID2305 (GlaxoSmithKline (GSK), 2010).
Several values for one entry are separate records, joined by “and”; a condition that tells them apart may be missing. Identical values can stand only once.

System: P. falciparum 3D7 growth, pLDH absorbance
Experiment: P. falciparum 3D7 growth inhibition, dose response, strain 3D7 (AID 2305)

| SMILES | IC50 |
| --- | --- |
| COc1ccc2nccc([C@@H](O)CN3CCC(NCc4cc5ccccc5[nH]4)CC3)c2n1 | 630 nM |
| CN1CCC(N2CCN(Cc3ccc(-c4ccc(-c5nc6ccccc6[nH]5)s4)cc3)CC2)CC1 | 140 nM |
| Cc1cc(NN=Cc2ccc(Cl)cc2)c2ccccc2n1 | 790 nM |
| O=C(/C=C/c1ccc(Cl)c(Cl)c1)NCCCCCN1CCCN(C(=O)Nc2cc(F)cc(F)c2)CC1 | 770 nM |
| CCOC(=O)c1c(C)noc1Nc1cccc(C)c1C | 420 nM |
| CCCCOc1ccc(-n2c(Nc3ccccc3)nc3cc(S(N)(=O)=O)ccc32)cc1 | 890 nM |
| Cc1ccc(NC(=O)c2ccc3nccnc3c2)cc1OC1CCN(Cc2ccc(F)cc2)CC1 | 1010 nM |
| COc1ccc(NC(=O)[C@H](Cc2ccccc2)Nc2cc(C)nc(NCCN3CCCC3)n2)cc1 | 1390 nM |
| Cc1[nH]c2ccccc2c(=O)c1-c1ccc(Cl)cc1 | 1000 nM |
| CCCc1cc(OC)c(CC2c3cc(O)c(C)cc3CCN2C)cc1OC (stereo not given) | 700 nM |
| CCCN(CCC)CCCNc1ccc(C(=O)Nc2ccc(OCC)cc2)cc1[N+](=O)[O-] | 990 nM |
| COc1cc(OC)c(NC(=O)C2c3ccccc3C(=O)N(CC(C)C)C2c2cccs2)cc1Cl (stereo not given) | 50 nM |
| O=C(Nc1ccc(Cl)cc1)c1cc(Cl)ccc1NC(=O)C1CCc2ccccc2O1 (stereo not given) | 1790 nM |
| CCC(CC)(Cc1ccccc1)NC(=O)[C@H](CC1CCCCC1)Nc1ccc(C#N)c2ccccc12 | 630 nM |
| CC(=O)Nc1nc(C(=O)Nc2ccc(-c3cccc(-c4nc5ccc(C(F)(F)F)cc5[nH]4)c3)cc2)cs1 | 180 nM |
| COc1ccc(S(=O)(=O)Nc2ccc(C(=O)NCc3ccccc3C(F)(F)F)cc2)cc1N1CCN(CC2CC2)CC1 | 1150 nM |
| CCOc1cc(Cl)c(C(C)NC(=O)c2ccccc2)cc1OCC (stereo not given) | 880 nM |
| Cc1ccc(CNC(=O)c2ccc(CN3CCCN(Cc4ccsc4)CC3)cc2)cc1 | 870 nM |
| O=C(Nc1ccc(NC2=NCCN2)cc1)Nc1ccc(NC2=NCCN2)cc1 | 850 nM |
| COc1ccc(CC(C)NCC(O)c2cccc(Cl)c2F)cc1 (stereo not given) | 1080 nM |
| O=C(/C=C/c1ccc(Cl)c(Cl)c1)N1CCC(CN2CCC(c3c(-c4ccc(F)cc4)[nH]c4ccccc34)CC2)CC1 | 170 nM |
| CC(=Nc1ccc(Cl)c(Cl)c1)N(C)C | 540 nM |
| CC(C)(C)c1ccc(NC(=O)c2ccc(CN3CCCN(Cc4ccc(F)cc4)CC3)cc2)cc1 | 1110 nM |
| CCN(CC)CCCC(C)Nc1c2ccc(Cl)cc2nc2ccc(OC)cc12 (stereo not given) | 40 nM |

| SMILES | IC50 |
| --- | --- |
| CS(=O)(=O)c1ccc(CCNCc2ccc(-c3ccc(CN(C(=O)c4ccco4)C4CCN(Cc5ccccc5)CC4)cc3)nc2)cc1 | 880 nM |
| O=C(/C=C/c1cccc(Cl)c1)NC1CCC(CN2CCC(c3c[nH]c4ccccc34)CC2)CC1 (stereo not given) | 750 nM and 720 nM |
| O=C(/C=C/c1ccc(Cl)c(Cl)c1)NCCCCCN1CCC(NC(=O)Nc2cccc(Cl)c2F)CC1 | 380 nM |
| CCCCN1Cc2c(n(CC(=O)Nc3ccccc3)c3cc(-c4ccccc4)nn3c2=O)C1=O | 810 nM |
| O=C(Nc1cccc(CN2CCCN(Cc3ccc4c(c3)OCO4)CC2)c1)c1ccc2ccccc2c1 | 1050 nM |
| OCC1CCN(Cc2cccc(-c3ccc(-c4nc5ccc(C(F)(F)F)cc5[nH]4)s3)c2)CC1 | 590 nM |
| CC(C)CNC(=O)c1ccnc(-c2ccc(CNC3Cc4ccccc4C3)cc2)c1 | 790 nM |
| COc1cc(NC(=O)N2CCOC(CCN3CCC(c4ccccc4)CC3)(c3ccc(Cl)c(Cl)c3)C2)cc(OC)c1 (stereo not given) | 290 nM |
| O=C(Nc1cccc(C(F)(F)F)c1)Nc1cc(F)c(F)cc1Cl | 1960 nM |
| ON=C(c1nc2ccccc2[nH]1)c1nc2ccccc2[nH]1 | 1090 nM |
| CCCCC(=O)Nc1nonc1-c1ccc(OCC)c(OCC)c1 | 910 nM |
| CN1CC=C(c2c[nH]c3ccc(Oc4ccccc4)cc23)CC1 | 250 nM |
| O=C(Nc1ccc(Cl)c(Cl)c1)N1CCC(CNCc2cccc([N+](=O)[O-])c2)CC1 | 980 nM |
| CCn1ccc2c(N3CCCC3=O)cc(C(=O)N[C@@H](Cc3ccccc3)[C@H](O)CNC3CCCCC3)cc21 | 120 nM |
| Cc1noc(C)c1-c1ccc2c(Nc3nccc4ccccc34)c(C(N)=O)cnc2c1 | 890 nM |
| Cn1cc(CN2CCCC(COC(c3ccc(F)cc3)c3ccc(F)cc3)C2)cn1 (stereo not given) | 570 nM |
| N=C(N)c1ccc(OCCCCCOc2ccc(C(=N)N)cc2)cc1 | 140 nM |
| C[C@@H](NC(=O)c1nn(-c2ccc(Cl)cc2)c(=O)c2ccccc12)C(C)(C)C | 1120 nM |
| CCNc1cc(C(=O)N[C@@H](Cc2ccccc2)[C@H](O)CNC2(CC)CC2)cc(N2CCCCS2(=O)=O)c1 | 1610 nM |
| COc1cc(F)c2ncc(Cl)c([C@@H](O)CN3CCC(NCc4ccc5c(n4)NC(=O)CO5)CC3)c2c1 | 120 nM |
| COc1ccccc1NC(=O)Nc1cccc(-c2ccc(-c3nc4ccc(C(F)(F)F)cc4[nH]3)cc2)c1 | 310 nM |
| O=C(Nc1nc2cc(S(=O)(=O)NCCc3cccc(F)c3)ccc2n1CCCn1ccnc1)c1ccc(Cl)cc1 | 1270 nM |
| COCCSc1nc2scc(C)c2c(=O)n1Cc1cccc(OC)c1 | 910 nM |
| Cc1ccc(NC(=O)c2cnc(N3CCN(c4ccncc4)CC3)c(Cl)c2)cc1 | 960 nM |

| SMILES | IC50 |
| --- | --- |
| CCN(CC)CCOC(=O)C(OC)(c1ccccc1)c1ccccc1 | 1020 nM |
| O=C(NCc1ccc(F)cc1)Nc1cccc(-c2ccc(-c3nc4ccccc4[nH]3)cc2)c1 | 170 nM |
| CCN1C(=O)N(CCC(C)C)C2(CCN(Cc3ccc(OC)cc3O)CC2)C1=O | 870 nM |
| CN(C(=O)c1ccccc1)[C@@H]1c2cc(C#N)ccc2OC(C)(C)[C@H]1O | 650 nM |
| Cc1cc(CN2CC[C@H](NC(=O)c3ccc(Cl)c(Cl)c3)C2)ccc1OCCN1CCNCC1 | 940 nM |
| CC12CCC(C(=O)N(CC(O)Cn3c4ccc(Cl)cc4c4cc(Cl)ccc43)C1=O)C2(C)C (stereo not given) | 840 nM |
| Cc1[nH]c(C)c(-c2ccc(OCc3ccccc3C(F)(F)F)nc2)c(=O)c1Br | 20 nM |
| O=C(NCCCCN1CCC(c2ccc3ccccc3c2O)CC1)c1ccc(-c2ccc(Cl)cc2)cc1 | 180 nM |
| Cc1cc(Oc2ccc(-n3ccnc3)cc2)nc(N2CCN(CCCN3CCCC3)CC2)n1 | 930 nM |
| CC[C@H](C)CNC(=O)c1cncc(-c2ccc(CNC3Cc4ccccc4C3)cc2)c1 | 830 nM |
| CC(=O)C1(c2ccccc2)CCN(CCC2(c3ccc(Cl)c(Cl)c3)CN(C(=O)CC(C)C)CCO2)CC1 (stereo not given) | 640 nM |
| Cc1ccc(C2(C)CN(CCCOc3cccc(-c4ccc(C(=O)NC(C)C)cc4)c3)CCO2)cc1 (stereo not given) | 960 nM |
| Cc1cccc2[nH]c(-c3cccc(-c4cccc(CNCCNC(=O)c5ccnn5C)c4)c3)nc12 | 190 nM |
| CCN(CC)CC(O)c1cc(-c2ccc(C)cc2)nc2c(C)cc(C)cc12 (stereo not given) | 170 nM |
| CCc1ccc(NC(=O)c2ccc(CN3CCCN(Cc4cccc(C)c4)CC3)cc2)cc1 | 1130 nM |
| COc1cc(CNc2ccc(N3CCCC3)cc2)cc(Cl)c1OC | 700 nM |
| CN1CCC(N(Cc2ccc(-c3ccc(C(F)(F)F)cc3)cc2)C(=O)Cn2cc(Cc3cnn(C)c3)c(=O)nc2SCc2cccc(F)c2F)CC1 | 930 nM |
| Nc1cccc(CNCc2cccc(-c3csc(-c4nc5ccccc5[nH]4)c3)c2)c1 | 680 nM |
| Cc1ccc2cc(NCCCCCCCCON3C(N)=NC(N)=NC34CCCCC4)ccc2n1 | 160 nM |
| CN(c1cc(NC(=O)c2ccc(F)cc2)ccn1)C1CCN(Cc2cccc(O)c2)CC1 | 920 nM |
| OCC1CCN(Cc2ccc(-c3ccc(-c4nc5ccc(F)cc5[nH]4)cc3)cc2)CC1 | 840 nM |
| Fc1ccc2nc(-c3ccc(-c4ccc(CN5CCN(CCN6CCOCC6)CC5)cc4)cc3)[nH]c2c1 | 180 nM |
